Experiment [1] has as its system PI3K signaling (p85α/GAB1 complex, P-AKT, P-S6). The experiment is described as follows: GAB1 immunoprecipitation and immunoblots of P-AKT and P-S6 in U87MG-EGFR* cells. Format: cell-based, human. As to conditions: U87MG-EGFR* cells (PTEN mutant), 10 μM each inhibitor (FIG. 3C).
Method: U87MG parental cells or cells constitutively expressing wt EGFR, the activating vIII deletion mutant (EGFR*) or the vIII mutant with an inactivating mutation in its kinase domain (EGFR*-KD) were immunoprecipitated with an antibody to the RTK/PI-3K adaptor protein, GAB1 (left panel), then immunoblots were probed with the indicated antibodies. […] Whole cell extracts (WCE) from the same cells were immunoblotted with the indicated antibodies. […] C. […] Bottom panel: Un-immunoprecipitated whole cell extracts were immunoblotted with the indicated antibodies. […] Error bars indicate SEM, n=4. […] U87MG-EGFR* cells were transfected with empty vector, HRASV12, myristoylated-AKT, or p110α-CAAX, then treated with 10 μM each of erlotinib (E), SU11274 (S), and imatinib (I) in 0.05% serum-containing medium for 72 hours prior to assaying cell viability.
We also immunoblotted whole cell extracts with antibodies against MAPK and phosphorylated versions of AKT, MAPK, and S6 (FIG. 3C, bottom panel):
Following 30 min incubation in lysis buffer at 4° C., lysates were cleared by centrifugation at 10 k 10 min 4° C., then protein concentrations were determined by BioRad DC Protein Assay. […] Co-immunoprecipitated proteins were detected with either mouse or rabbit TrueBlot HRP conjugated secondaries (eBioscience). • Antibody arrays.
The subject of a further experiment is PDGFR. The experiment is described as follows: p-PDGFR in LNZ308 cells. Format: cell-based, human. The source says: We then correlated inhibition of PI3K activity with biological effects of various combinations of RTK inhibitor treatment regimens. […] Second, we are mindful of the limitation of detection sensitivity by current antibody array technology and that a particular RTK may not be represented or be activated at an undetectable but biologically-relevant level. As shown in FIG. 4C-E, combination inhibition of RTKs in LN382 and LNZ308, both PTEN mutant GBM lines, effectively extinguished PI3K activity.

In the next experiment the target is T1, PDGFRβ (Homo sapiens, UniProt P09619).
T1 construct: endogenous in cells; host or cells: LN382 and LN18 glioma cells
The experiment is described as follows: Immunoblot of P-PDGFRβ in LN382 and LN18 cells. Type of experiment: cell-based. As to conditions: 1 μM, 24 hours (FIG. 4F). From the text:
DNA is labeled with Hoechst 33342.

Experiment [2] addresses T2, MET (Homo sapiens, UniProt P08581). The experiment is described as follows: RTK antibody array, phosphorylation of MET in U87MG-EGFR* cells. Format: cell-based. More on the design: endogenous in cells. The settings on record: 10 μM, RTK antibody array (FIG. 3B).
Method: Error bars indicate SEM, n=4.
Following 30 min incubation in lysis buffer at 4° C., lysates were cleared by centrifugation at 10 k 10 min 4° C., then protein concentrations were determined by BioRad DC Protein Assay. […] Tyrosine-phosphorylated proteins were visualized by separation on NuPAGE 3-8% Tris-Acetate gels (Invitrogen), blotted onto nitrocellulose, blocked with 3% Immunoblot Blocking Reagent (Upstate), then incubated with anti-phosphotyrosine antibody (4G10, Upstate). […] Co-immunoprecipitated proteins were detected with either mouse or rabbit TrueBlot HRP conjugated secondaries (eBioscience). • Antibody arrays. Cells were harvested as for immunoprecipitations above. Snap-frozen tumors were thawed in immunoprecipitation lysis buffer, homogenized by hand 50× with disposable 1.5 mL pestles, incubated 30 min 4° C. with inversion, homogenized 50×, then cleared by centrifugation at 10 k 10 min 4° C. Proteins were quantitated as above. RTK antibody arrays were purchased from R&D Systems (#ARY-001) and performed as recommended but with 2 mg protein lysate per array. • Soft agar colony formation.
The target in experiment [3] is T2, MET. The experiment is described as follows: Immunoblot of P-MET in LN382 and LN18 cells. Type of experiment: cell-based. The settings on record: 1 μM, 24 hours (FIG. 4F). Set-up: endogenous in cells; host or cells: LN382 and LN18 glioma cells.
Method: A-E. The glioma cell lines LN18 (wt PTEN), SF767 (wt PTEN), LN382 (mut PTEN) and LNZ308 (mut PTEN) were incubated in 0.05% serum-containing medium cells and treated with 10 μM erlotinib (E or T), 10 μM SU11274 (S), and/or 10 μM imatinib (I or G) and immunoblotted as in FIG. 3. […] LN382 and LN18 cells were treated with 1 μM each RTK inhibitor for 24 hours, then immunoblotted with antibodies to P-PDGFRβ and P-MET.

Structures are written as SMILES. Where a name gives a salt, the structure may show the parent alone.

T2 sequence (P08581 25-1390): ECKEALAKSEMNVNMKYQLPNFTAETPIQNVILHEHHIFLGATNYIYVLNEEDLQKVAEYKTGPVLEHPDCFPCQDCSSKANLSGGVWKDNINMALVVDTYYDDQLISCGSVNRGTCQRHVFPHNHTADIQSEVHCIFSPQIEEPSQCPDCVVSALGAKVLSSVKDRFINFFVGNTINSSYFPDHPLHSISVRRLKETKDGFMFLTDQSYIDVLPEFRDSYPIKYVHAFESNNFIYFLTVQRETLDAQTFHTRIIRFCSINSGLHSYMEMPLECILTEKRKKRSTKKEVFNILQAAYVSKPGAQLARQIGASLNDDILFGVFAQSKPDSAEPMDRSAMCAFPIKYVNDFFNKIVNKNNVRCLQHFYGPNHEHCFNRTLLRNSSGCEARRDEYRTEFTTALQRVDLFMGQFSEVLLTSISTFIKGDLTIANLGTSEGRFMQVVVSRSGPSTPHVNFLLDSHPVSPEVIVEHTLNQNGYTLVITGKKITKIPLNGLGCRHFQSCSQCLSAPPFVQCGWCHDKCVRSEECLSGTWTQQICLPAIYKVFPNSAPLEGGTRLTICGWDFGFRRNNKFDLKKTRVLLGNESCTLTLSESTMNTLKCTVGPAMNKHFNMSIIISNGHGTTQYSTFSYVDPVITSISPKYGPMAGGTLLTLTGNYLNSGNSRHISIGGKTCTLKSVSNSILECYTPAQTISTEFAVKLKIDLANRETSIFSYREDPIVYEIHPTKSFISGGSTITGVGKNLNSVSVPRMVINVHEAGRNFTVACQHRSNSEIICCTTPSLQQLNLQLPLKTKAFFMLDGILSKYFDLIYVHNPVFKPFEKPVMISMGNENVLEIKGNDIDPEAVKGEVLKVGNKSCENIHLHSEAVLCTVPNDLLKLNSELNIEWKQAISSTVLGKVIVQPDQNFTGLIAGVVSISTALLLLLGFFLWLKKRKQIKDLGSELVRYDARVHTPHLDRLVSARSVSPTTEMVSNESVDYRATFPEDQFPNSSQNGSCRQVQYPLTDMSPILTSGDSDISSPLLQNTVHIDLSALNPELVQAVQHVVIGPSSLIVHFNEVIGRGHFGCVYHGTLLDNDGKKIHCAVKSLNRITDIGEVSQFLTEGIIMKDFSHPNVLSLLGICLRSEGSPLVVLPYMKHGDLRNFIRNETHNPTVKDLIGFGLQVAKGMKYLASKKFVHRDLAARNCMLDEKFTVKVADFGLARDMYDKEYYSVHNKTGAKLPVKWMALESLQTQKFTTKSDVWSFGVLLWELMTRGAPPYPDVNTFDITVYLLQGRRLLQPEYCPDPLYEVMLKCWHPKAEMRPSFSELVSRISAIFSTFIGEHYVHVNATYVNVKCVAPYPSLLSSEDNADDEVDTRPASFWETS
T1 sequence (P09619 33-1106): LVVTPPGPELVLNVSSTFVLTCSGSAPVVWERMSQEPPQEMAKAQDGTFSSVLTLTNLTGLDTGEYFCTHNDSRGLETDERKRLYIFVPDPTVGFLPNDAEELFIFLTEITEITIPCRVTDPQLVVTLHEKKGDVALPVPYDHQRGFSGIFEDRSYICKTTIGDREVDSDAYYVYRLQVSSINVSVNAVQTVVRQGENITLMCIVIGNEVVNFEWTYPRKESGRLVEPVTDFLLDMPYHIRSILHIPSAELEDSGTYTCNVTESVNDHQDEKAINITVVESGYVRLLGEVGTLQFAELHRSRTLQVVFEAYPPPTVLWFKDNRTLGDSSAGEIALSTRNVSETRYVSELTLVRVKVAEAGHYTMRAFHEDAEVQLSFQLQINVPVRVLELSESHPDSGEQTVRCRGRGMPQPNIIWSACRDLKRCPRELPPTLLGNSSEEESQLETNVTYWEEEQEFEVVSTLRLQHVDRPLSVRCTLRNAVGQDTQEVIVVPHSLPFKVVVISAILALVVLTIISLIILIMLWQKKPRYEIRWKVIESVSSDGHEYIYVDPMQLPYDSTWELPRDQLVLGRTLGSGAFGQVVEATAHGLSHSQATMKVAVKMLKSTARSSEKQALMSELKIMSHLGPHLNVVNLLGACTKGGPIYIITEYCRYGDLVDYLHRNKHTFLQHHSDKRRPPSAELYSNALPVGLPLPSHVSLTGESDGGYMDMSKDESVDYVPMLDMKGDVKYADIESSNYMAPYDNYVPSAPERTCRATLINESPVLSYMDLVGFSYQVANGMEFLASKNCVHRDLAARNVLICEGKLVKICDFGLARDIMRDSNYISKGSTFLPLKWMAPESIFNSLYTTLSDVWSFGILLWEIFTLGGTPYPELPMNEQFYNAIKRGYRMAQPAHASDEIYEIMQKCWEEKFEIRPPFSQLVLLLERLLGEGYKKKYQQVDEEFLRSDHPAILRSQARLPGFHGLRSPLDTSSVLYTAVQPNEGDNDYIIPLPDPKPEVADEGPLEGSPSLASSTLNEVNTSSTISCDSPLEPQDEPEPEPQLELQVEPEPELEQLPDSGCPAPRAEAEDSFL

With `Cc1[nH]c(/C=C2\C(=O)Nc3ccc(S(=O)(=O)N(C)c4cccc(Cl)c4)cc32)c(C)c1C(=O)N1CCN(C)CC1` [SU11274], the “PI3K association with GAB1 and downstream activation of AKT and S6” value in experiment [1] was “no discernable effect”. Moreover, in the experiment on PDGFR, the p-PDGFR entry is “diminishes p-PDGFR”. The P-PDGFRβ result at PDGFRβ was “decrease in P-PDGFRβ”. Also, the “phosphorylation of intended target RTK (P-MET)” value on MET [2] is “effectively blocked phosphorylation”.
For the molecule `Cc1ccc(NC(=O)c2ccc(CN3CCN(C)CC3)cc2)cc1Nc1nccc(-c2cccnc2)n1` [Gleevec™, Imatinib mesylate], in experiment [1], the “PI3K association with GAB1 and downstream activation of AKT and S6” value is “did not significantly effect PI3K activation”. For the same molecule, the “phosphorylation of MET” value at MET [3] is listed as “decrease in phosphorylation of MET”.

(Values after patent US20100255004A1, “RECEPTOR TYROSINE KINASE PROFILING” (Dana Farber Cancer Institute, priority 2007, published 2010).)
